Assay results taken from the supplement of paper PMC10307832.

Legend:
Assay in all cases: relative viability (nuclei count vs DMSO), 5 days (fraction); higher = more cells survive
EHT 1864 + Luminespib = compound: C1COCCN1CC2=CC(=O)C(=CO2)OCCCCCSC3=C4C=CC(=CC4=NC=C3)C(F)(F)F [EHT 1864] + CCNC(=O)c1noc(-c2cc(C(C)C)c(O)cc2O)c1-c1ccc(CN2CCOCC2)cc1 [Luminespib] (partner 0.01 µM)
Method in brief: (§1)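 Lung cancer cell lines, seeded in 1536-well plates, were treated the following day by pin tool with a single drug or with five library-drug doses (not always all listed) in √10 steps on top of a fixed anchor-drug dose. Cells were fixed and nuclei stained in one step after 5 days, and nuclei were counted. Relative viability is the nuclei count for treated wells divided by that for vehicle wells, reported as medians of duplicate plates.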

EHT 1864 + Decitabine = compound: C1COCCN1CC2=CC(=O)C(=CO2)OCCCCCSC3=C4C=CC(=CC4=NC=C3)C(F)(F)F [EHT 1864] + Nc1ncn([C@H]2C[C@H](O)[C@@H](CO)O2)c(=O)n1 [Decitabine] (partner 2 µM)
Method in brief: as §1

EHT 1864 + Olaparib = compound: C1COCCN1CC2=CC(=O)C(=CO2)OCCCCCSC3=C4C=CC(=CC4=NC=C3)C(F)(F)F [EHT 1864] + O=C(c1cc(Cc2n[nH]c(=O)c3ccccc23)ccc1F)N1CCN(C(=O)C2CC2)CC1 [Olaparib] (partner 8 µM)
Method in brief: as §1

EHT 1864 + Lapatinib = compound: C1COCCN1CC2=CC(=O)C(=CO2)OCCCCCSC3=C4C=CC(=CC4=NC=C3)C(F)(F)F [EHT 1864] + CS(=O)(=O)CCNCc1ccc(-c2ccc3ncnc(Nc4ccc(OCc5cccc(F)c5)c(Cl)c4)c3c2)o1 [Lapatinib] (partner 2 µM)
Method in brief: as §1

Cell Line | relative viability (EHT 1864 + Luminespib; first compound 0.04 µM) | relative viability (EHT 1864 + Luminespib; first compound 0.1265 µM) | relative viability (EHT 1864 + Luminespib; first compound 0.4 µM) | relative viability (EHT 1864 + Luminespib; first compound 1.265 µM) | relative viability (EHT 1864 + Luminespib; first compound 4 µM) | relative viability (EHT 1864 + Decitabine; first compound 0.04 µM) | relative viability (EHT 1864 + Decitabine; first compound 0.4 µM) | relative viability (EHT 1864 + Decitabine; first compound 1.265 µM) | relative viability (EHT 1864 + Decitabine; first compound 4 µM) | relative viability (EHT 1864 + Olaparib; first compound 0.04 µM) | relative viability (EHT 1864 + Olaparib; first compound 0.4 µM) | relative viability (EHT 1864 + Olaparib; first compound 1.265 µM) | relative viability (EHT 1864 + Olaparib; first compound 4 µM) | relative viability (EHT 1864 + Lapatinib; first compound 0.04 µM) | relative viability (EHT 1864 + Lapatinib; first compound 0.4 µM) | relative viability (EHT 1864 + Lapatinib; first compound 1.265 µM) | relative viability (EHT 1864 + Lapatinib; first compound 4 µM) | relative viability (EHT 1864 + Decitabine; first compound 0.1265 µM) | relative viability (EHT 1864 + Olaparib; first compound 0.1265 µM) | relative viability (EHT 1864 + Lapatinib; first compound 0.1265 µM)
NCI-H441 | 0.478 | 0.346 | 0.322 | 0.393 | 0.385 | 0.246 | 0.241 | 0.234 | 0.241 | 0.562 | 0.503 | 0.477 | 0.617 | – | – | – | – | – | – | –
NCI-H1944 | 0.827 | – | 0.74 | 0.712 | 0.802 | 0.43 | 0.429 | 0.433 | 0.417 | 0.376 | 0.392 | 0.416 | 0.367 | 0.907 | 0.916 | 0.858 | 0.817 | – | – | –
NCI-H23 | 0.194 | – | 0.242 | 0.193 | 0.204 | 0.297 | 0.314 | 0.343 | 0.393 | 0.295 | 0.284 | 0.296 | 0.32 | 0.927 | 1.05 | 0.938 | 0.928 | 0.29 | 0.271 | –
HARA | 0.738 | 0.68 | 0.75 | 0.644 | 0.719 | 0.532 | 0.563 | 0.564 | 0.425 | 0.872 | 0.967 | 0.876 | 0.761 | 0.718 | 0.688 | 0.706 | 0.758 | – | – | 0.702
NCI-H1792 | 0.393 | – | 0.376 | 0.361 | 0.533 | 0.506 | 0.515 | 0.567 | 0.601 | 0.466 | 0.339 | 0.359 | 0.416 | 0.864 | 0.926 | 0.882 | 0.928 | – | – | 0.777
NCI-H1703 | – | – | – | – | – | – | – | – | – | 0.396 | 0.461 | 0.277 | 0.291 | 0.796 | 1.21 | 1.01 | 0.854 | – | – | 0.857
NCI-H2342 | 0.669 | 0.651 | 0.744 | 0.702 | 0.759 | 0.712 | 0.787 | 0.751 | 0.763 | 0.402 | 0.474 | 0.39 | 0.451 | – | – | – | – | 0.562 | 0.409 | –
CAL-12T | 0.563 | 0.178 | 0.366 | 0.373 | 0.46 | – | – | – | – | 0.702 | 0.721 | 0.706 | 0.611 | 0.63 | 0.677 | 0.675 | 0.799 | – | 0.642 | 0.562
NCI-H727 | 0.62 | 0.417 | 0.376 | 0.538 | 0.385 | 0.98 | 0.85 | 0.811 | 0.914 | 1.07 | 0.459 | 0.529 | 0.524 | 0.841 | 0.635 | – | 0.881 | 0.639 | 0.75 | 0.743
NCI-H2085 | 0.432 | – | 0.541 | 0.415 | 0.442 | 0.604 | 0.588 | 0.656 | 0.555 | 0.783 | 0.754 | 0.732 | 0.713 | 0.809 | 0.807 | 0.716 | 0.744 | 0.551 | 0.762 | 0.678
NCI-H1395 | 0.605 | 0.688 | 0.648 | 0.76 | 0.673 | 0.722 | 0.709 | 0.657 | 0.673 | 0.472 | 0.48 | 0.488 | 0.459 | 1.04 | 1.05 | 1.01 | 0.861 | 0.676 | 0.548 | 0.877
NCI-H1648 | – | – | – | – | – | 0.564 | 0.471 | 0.502 | 0.643 | 0.765 | 0.759 | 0.769 | 0.984 | – | – | – | – | – | – | –
NCI-H460 | 0.0334 | 0.0284 | 0.0337 | 0.0326 | 0.0353 | – | 0.495 | 0.43 | 0.255 | 0.461 | 0.389 | 0.363 | 0.351 | 0.891 | 0.975 | 0.845 | 0.885 | 0.405 | 0.387 | 0.897
A549 | – | – | – | – | – | 0.263 | 0.257 | 0.284 | 0.323 | 0.302 | 0.368 | 0.246 | 0.428 | 0.927 | 0.996 | 0.914 | 0.625 | 0.213 | 0.299 | 0.894
IA-LM | – | – | – | – | – | – | – | – | – | 0.926 | 0.81 | 0.62 | 0.618 | 0.704 | 0.74 | – | 0.622 | – | 0.842 | –
EKVX | 0.9 | 0.871 | 0.834 | 0.836 | 0.885 | 0.372 | 0.317 | 0.329 | 0.381 | 0.741 | 0.806 | 0.83 | 0.788 | 0.238 | 0.205 | 0.207 | 0.21 | 0.333 | 0.823 | 0.216
ChaGo-K-1 | 0.487 | 0.604 | 0.703 | 0.547 | 0.559 | 0.584 | 0.527 | 0.477 | 0.531 | 0.403 | 0.443 | 0.406 | 0.349 | – | – | – | – | 0.501 | 0.442 | –
